Experimental data as given in US20140081017A1, “Histone Deacetylase Inhibitors for Enhancing Activity of Antifungal Agents” (METHYLGENE INC., priority 2012, published 2014).
Converted amounts (≈) assume the structure as drawn.

These compounds were tested on C. glabrata (assay: Checkerboard FIC assay in combination with fluconazole (MIC alone and in combination, FICI)). Settings: C. glabrata; FICI calculated using a fluconazole MIC of 16 μg/mL.
Assay type: cell-based, Candida glabrata
Procedure: The ability of the compounds to synergize with azoles against C. glabrata was evaluated by the checkerboard assay, a common laboratory method used to evaluate synergy, antagonism, and indifference using fractional inhibitory concentrations (FICs) and FIC indices (FICI).
The test compounds were supplied as a powder and dissolved in dimethylsulfoxide (DMSO) on the day of assay. Stock solutions were prepared at 640 ug/mL. Fluconazole was dissolved in deionized water to a stock concentration of 320 ug/mL. All test articles were in solution under these conditions.
(§1) The test organisms and reference isolates were streaked for isolation on Sabouraud agar medium (yeasts) or potato dextrose agar (fungi). Colonies were picked by swab from the medium and resuspended in the appropriate broth containing cryoprotectant. The suspensions were aliquoted into cryogenic vials and maintained at −80° C.
(§2) Prior to testing, the yeast isolates were streaked from the frozen vials onto Sabouraud dextrose agar. The plates were incubated overnight at 35° C. The fungal isolate was grown on potato dextrose agar slants and was incubated for 7-10 days at room temperature.
(§3) Both yeast and fungal isolates were tested in RPMI medium buffered with 0.165 M MOPS (3-(N-morpholino)propanesulfonic acid). The pH of the medium was adjusted to 7.0 with 1 N NaOH. The medium was sterile filtered using a 0.2 um PES (polyethersulfone) filter and stored at 4° C. until used.
FIC values were determined using a broth microdilution method (CLSI; 1, 3). To prepare the test plates, automated liquid handlers (Multidrop 384, Labsystems, Helsinki, Finland; Biomek 2000 and Biomek FX, Beckman Coulter, Fullerton Calif.) were used to conduct serial dilutions and liquid transfers.
The wells of standard 96-well microdilution plates (Costar 3795) were filled with 150 uL of DMSO in columns 2-12. Three hundred microliters of each test compound was added to each well in Column 1 of the plates. The Biomek 2000 was used to make eleven 2-fold serial dilutions in each of these “test compound mother” plates. The wells of the “fluconazole mother plates” were filled with 150 uL of sterile water in rows B-H. Row A of these plates was filled with 300 uL of the fluconazole stock solution. Serial 2-fold dilutions were then prepared from top to bottom by hand, using a multichannel pipette in rows B-G. The “daughter plates” were loaded with 180 uL of RPMI using the Multidrop 384. The Biomek FX was used to transfer 5 uL of compound solution from each well of a fluconazole mother plate to the corresponding well in all of the daughter plates in a single step. Then the Biomek FX was used to transfer 5 uL of compound solution from each well of a test compound mother plate to the corresponding well of the corresponding test compound daughter plate (already containing fluconazole at the appropriate concentrations) in a single step. Row H and Column 12 each contained serial dilutions of the test agent and fluconazole alone, respectively, for determination of the MIC.
Standardized inoculum of each organism was prepared per CLSI methods (CLSI; 1, 3). For yeast isolates, colonies were picked from the primary plate and a suspension was prepared in 0.85% saline to equal a 0.5 McFarland turbidity standard. For the fungal isolate, 1 mL of 0.85% saline was dispensed onto a potato dextrose agar slant onto which the isolate had been inoculated 7-10 days previously. Using a swab, a suspension of the fungus was made. After a short time to allow the heavy particles to settle out, a small quantity of the supernatant was dispensed into 0.85% saline and the suspension was adjusted to equal a 0.5 McFarland turbidity standard. Both yeast and fungal isolates were diluted 1:100 in RPMI and then transferred to compartments of sterile reservoirs divided by length (Beckman Coulter). The Biomek 2000 was used to inoculate the plates. […]
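Throughout, for Minimum Inhibitory Concentrations against Yeast Isolates, Candida parapsilosis: two read times 24 hr and 48 hr of incubation.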

Structure (SMILES) | FICI of combination resulting in fluconazole MIC of: 2 ug/mL | FICI of combination resulting in fluconazole MIC of: 4 ug/mL | FICI of combination resulting in fluconazole MIC of: 8 ug/mL
Cc1ccc(CCCCc2ccc(CC(=O)NO)cc2)cc1 [Example 4, N-hydroxy-2-(4-(4-p-tolylbutyl)phenyl)acetamide] | 1.063 | 0.605 | 0.490

Same assay, conditions: C. glabrata; FICI using a fluconazole MIC of 128 μg/mL

Structure (SMILES) | FICI of combination resulting in fluconazole MIC of: 2 ug/mL (value in parenthesis) | FICI of combination resulting in fluconazole MIC of: 4 ug/mL (value in parenthesis) | FICI of combination resulting in fluconazole MIC of: 8 ug/mL (value in parenthesis)
Cc1ccc(CCCCc2ccc(CC(=O)NO)cc2)cc1 [Example 4, N-hydroxy-2-(4-(4-p-tolylbutyl)phenyl)acetamide] | 1.016 | 0.511 | 0.303

Same assay, conditions: Nakaseomyces glabratus; MIC of the example compound alone against C. glabrata in the checkerboard assay, approximately 48 hr; read-out: Methylgene MIC

Structure (SMILES) | MIC
Cc1ccc(CCCCc2ccc(CC(=O)NO)cc2)cc1 [Example 4, N-hydroxy-2-(4-(4-p-tolylbutyl)phenyl)acetamide] | 0.25 µg/mL

Same assay, conditions: Nakaseomyces glabratus; test compound alone, C. glabrata, approx. 48 hr at 35° C.; read-out: Compound MIC

Structure (SMILES) | MIC
Cc1ccc(CCCCc2ccc(CC(=O)NO)cc2)cc1 [Example 4, N-hydroxy-2-(4-(4-p-tolylbutyl)phenyl)acetamide] | 0.25 µg/mL

Same assay, conditions: concentration in combination as multiple of the compound's MIC alone; fluconazole MIC 2 ug/mL

Structure (SMILES) | Multiple of compound MIC to synergize fluconazole MIC to 2 ug/mL
Cc1ccc(CCCCc2ccc(CC(=O)NO)cc2)cc1 [Example 4, N-hydroxy-2-(4-(4-p-tolylbutyl)phenyl)acetamide] | (1x)

Same assay, conditions: concentration in combination as multiple of the compound's MIC alone; fluconazole MIC 4 ug/mL

Structure (SMILES) | Multiple of compound MIC to synergize fluconazole MIC to 4 ug/mL
Cc1ccc(CCCCc2ccc(CC(=O)NO)cc2)cc1 [Example 4, N-hydroxy-2-(4-(4-p-tolylbutyl)phenyl)acetamide] | (½x)

Same assay, conditions: concentration in combination as multiple of the compound's MIC alone; fluconazole MIC 8 ug/mL

Structure (SMILES) | Multiple of compound MIC to synergize fluconazole MIC to 8 ug/mL
Cc1ccc(CCCCc2ccc(CC(=O)NO)cc2)cc1 [Example 4, N-hydroxy-2-(4-(4-p-tolylbutyl)phenyl)acetamide] | (¼x)

Same assay, conditions: in combination with fluconazole, C. glabrata; fluconazole MIC lowered to 2 ug/mL

Structure (SMILES) | Concentration of Methylgene compound to synergize fluconazole MIC to 2 ug/mL
Cc1ccc(CCCCc2ccc(CC(=O)NO)cc2)cc1 [Example 4, N-hydroxy-2-(4-(4-p-tolylbutyl)phenyl)acetamide] | 0.25 µg/mL

Same assay, conditions: in combination with fluconazole, C. glabrata; fluconazole MIC lowered to 4 ug/mL

Structure (SMILES) | Concentration of Methylgene compound to synergize fluconazole MIC to 4 ug/mL
Cc1ccc(CCCCc2ccc(CC(=O)NO)cc2)cc1 [Example 4, N-hydroxy-2-(4-(4-p-tolylbutyl)phenyl)acetamide] | 0.12 µg/mL

Same assay, conditions: in combination with fluconazole, C. glabrata; fluconazole MIC lowered to 8 ug/mL

Structure (SMILES) | Concentration of Methylgene compound to synergize fluconazole MIC to 8 ug/mL
Cc1ccc(CCCCc2ccc(CC(=O)NO)cc2)cc1 [Example 4, N-hydroxy-2-(4-(4-p-tolylbutyl)phenyl)acetamide] | 0.06 µg/mL

These compounds were tested on Candida glabrata (assay: Minimal Inhibitory Concentration (MIC) assay, broth microdilution per CLSI). Settings: Nakaseomyces glabratus; 24 hr reading (first value of cell 24 hr/48 hr); read-out: Minimum Inhibitory Concentrations against Yeast Isolates, Candida glabrata.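 Note: two read times 24 hr and 48 hr of incubation.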
Assay type: cell-based
Procedure: (§4) The in vitro activities of the inventive compounds (compound(s) herein) against fungi and/or yeasts were determined with isolates Candida albicans, Candida glabrata and Candida parapsilosis. The comparator compounds included fluconazole, caspofungin and amphotericin B.
(§5) The compounds were supplied as a powder, and were dissolved in dimethylsulfoxide (DMSO) the day of assay. Stock solutions were prepared at 10 mg/mL and diluted to a starting stock concentration of 2.56 mg/mL. Amphotericin B was dissolved in DMSO to a stock concentration of 2.56 mg/mL. Fluconazole was dissolved in deionized water to a stock concentration of 2.56 mg/mL. Caspofungin was received as a stock solution of 3.2 mg/mL in DMSO and was diluted to a starting stock concentration of 2.56 mg/mL.
as §1, §2, §3
(§6) The MIC assay method followed the procedure described by the Clinical and Laboratory Standards Institute (CLSI; 1, 2, 3) and employed automated liquid handlers to conduct serial dilutions and liquid transfers. Automated liquid handlers included the Multidrop 384 (Labsystems, Helsinki, Finland), Biomek 2000 and Biomek FX (Beckman Coulter, Fullerton Calif.). The wells in columns 2-12 in standard 96-well microdilution plates (Costar 3795) were filled with 150 ul of 100% DMSO. These would become the ‘mother plates’ from which ‘daughter’ or test plates would be prepared. The compounds (300 uL at 40× the desired top concentration in the test plates) were dispensed into the appropriate well in Column 1 of the mother plates. The Biomek 2000 was used to make serial 1:1 dilutions through Column 11 in the “mother plate”. The wells of Column 12 contained no compounds and were the organism growth control wells.
(§7) The daughter plates were loaded with 185 uL per well of RPMI described above using the Multidrop 384. The daughter plates were prepared using the Biomek FX which transferred 5 μL of the compound solution from each well of a mother plate to the corresponding well of the daughter plate in a single step.
(§8) Standardized inoculum of each organism was prepared per CLSI methods. For yeast isolates, colonies were picked from the streak plate and a suspension was prepared in 0.85% saline. For the fungal isolate, 1 mL of 0.85% saline was dispensed onto the potato dextrose agar slant that had been inoculated 7-10 days previously. Using a swab, a suspension of the fungus was made. After a short time to allow the heavy particles to settle out, a small quantity of the supernatant was dispensed into 0.85% saline and the suspension adjusted to equal a 0.5 McFarland turbidity standard. Both yeast and fungal isolates were diluted 1:100 in RPMI and then transferred to compartments of sterile reservoirs divided by length (Beckman Coulter). The Biomek 2000 was used to inoculate the plates. Daughter plates were placed on the Biomek 2000 work surface reversed so that inoculation took place from low to high compound concentration. The Biomek 2000 delivered 10 μL of standardized inoculum into each well. Thus, the wells of the daughter plates ultimately contained 185 uL of RPMI, 5 uL of the compound solution, and 10 uL of inoculum. […]

Structure (SMILES) | MIC
Cc1ccc(CCCCc2ccc(CC(=O)NO)cc2)cc1 [Example 4, N-hydroxy-2-(4-(4-p-tolylbutyl)phenyl)acetamide] | 0.25 µg/mL (≈ 0.841 µM)

Same assay, conditions: Nakaseomyces glabratus; 48 hr reading (second value of cell 24 hr/48 hr); read-out: Minimum Inhibitory Concentrations against Yeast Isolates, Candida glabrata

Structure (SMILES) | MIC
Cc1ccc(CCCCc2ccc(CC(=O)NO)cc2)cc1 [Example 4, N-hydroxy-2-(4-(4-p-tolylbutyl)phenyl)acetamide] | 0.25 µg/mL (≈ 0.841 µM)

What follows are compounds tested on Candida albicans in the same assay as above. Settings: Candida albicans; 24 hr reading (first value of cell 24 hr/48 hr); read-out: Minimum Inhibitory Concentrations against Yeast Isolates, Candida albicans.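 Note: two read times 24 hr and 48 hr of incubation.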
Assay type: cell-based
Procedure: as §4, §5, §1, §2, §3, §6, §7, §8

Structure (SMILES) | MIC
Cc1ccc(CCCCc2ccc(CC(=O)NO)cc2)cc1 [Example 4, N-hydroxy-2-(4-(4-p-tolylbutyl)phenyl)acetamide] | 0.25 µg/mL (≈ 0.841 µM)

Same assay, conditions: Candida albicans; 48 hr reading (second value of cell 24 hr/48 hr); read-out: Minimum Inhibitory Concentrations against Yeast Isolates, Candida albicans

Structure (SMILES) | MIC
Cc1ccc(CCCCc2ccc(CC(=O)NO)cc2)cc1 [Example 4, N-hydroxy-2-(4-(4-p-tolylbutyl)phenyl)acetamide] | 0.25 µg/mL (≈ 0.841 µM)

The compounds below were run on Candida parapsilosis in the same assay as above. Settings: Lodderomyces parapsilosis; 24 hr reading (first value of cell 24 hr/48 hr); read-out: Minimum Inhibitory Concentrations against Yeast Isolates, Candida parapsilosis.
Assay type: cell-based
Procedure: as §4, §5, §1, §2, §3, §6, §7, §8

Structure (SMILES) | MIC
Cc1ccc(CCCCc2ccc(CC(=O)NO)cc2)cc1 [Example 4, N-hydroxy-2-(4-(4-p-tolylbutyl)phenyl)acetamide] | 0.12 µg/mL (≈ 0.403 µM)

Same assay, conditions: Lodderomyces parapsilosis; 48 hr reading (second value of cell 24 hr/48 hr); read-out: Minimum Inhibitory Concentrations against Yeast Isolates, Candida parapsilosis

Structure (SMILES) | MIC
Cc1ccc(CCCCc2ccc(CC(=O)NO)cc2)cc1 [Example 4, N-hydroxy-2-(4-(4-p-tolylbutyl)phenyl)acetamide] | 0.25 µg/mL (≈ 0.841 µM)
